pIC50: −log10 of the molar value. Counter-ions that a name gives are not always drawn.
Biological target: T1, human calcium receptor (Homo sapiens, UniProt P41180)
T1 construct: expressed in transfected cells
T1 sequence (P41180 20-1078): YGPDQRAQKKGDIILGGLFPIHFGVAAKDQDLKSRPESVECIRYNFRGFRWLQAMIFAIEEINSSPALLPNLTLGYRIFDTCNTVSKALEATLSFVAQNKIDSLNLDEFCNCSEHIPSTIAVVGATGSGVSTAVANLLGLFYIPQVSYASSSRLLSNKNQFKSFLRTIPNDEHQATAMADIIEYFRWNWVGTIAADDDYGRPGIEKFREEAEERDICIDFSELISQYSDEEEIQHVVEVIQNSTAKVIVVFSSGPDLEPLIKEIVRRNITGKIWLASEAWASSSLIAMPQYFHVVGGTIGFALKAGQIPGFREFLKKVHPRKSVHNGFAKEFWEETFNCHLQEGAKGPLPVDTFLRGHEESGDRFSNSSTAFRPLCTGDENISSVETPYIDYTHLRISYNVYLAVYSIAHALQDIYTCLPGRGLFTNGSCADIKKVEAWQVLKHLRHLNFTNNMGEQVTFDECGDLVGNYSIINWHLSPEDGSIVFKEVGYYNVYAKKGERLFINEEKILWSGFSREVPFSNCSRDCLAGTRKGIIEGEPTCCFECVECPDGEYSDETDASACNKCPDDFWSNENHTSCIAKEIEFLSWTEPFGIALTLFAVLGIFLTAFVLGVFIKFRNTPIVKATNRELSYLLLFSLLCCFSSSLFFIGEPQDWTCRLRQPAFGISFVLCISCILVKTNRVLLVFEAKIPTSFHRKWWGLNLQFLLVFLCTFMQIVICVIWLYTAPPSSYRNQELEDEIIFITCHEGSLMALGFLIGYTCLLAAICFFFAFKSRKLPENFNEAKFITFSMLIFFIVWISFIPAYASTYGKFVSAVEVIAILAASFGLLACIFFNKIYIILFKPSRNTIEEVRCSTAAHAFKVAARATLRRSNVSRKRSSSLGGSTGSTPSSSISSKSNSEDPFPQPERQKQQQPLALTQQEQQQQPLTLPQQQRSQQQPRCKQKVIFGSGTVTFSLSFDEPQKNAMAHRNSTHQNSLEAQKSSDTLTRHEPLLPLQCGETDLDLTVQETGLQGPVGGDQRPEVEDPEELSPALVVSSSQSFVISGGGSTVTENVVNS
Experiment: Calcium Receptor Inhibitor Assay
Type: cell-based
Details: not given
Description: This example illustrates the use of the Calcium Receptor Inhibitor Assay. […] Res. 10 Suppl. […] Intracellular Ca^2+ was measured using fluo-3, a fluorescent calcium indicator.
The procedure was as follows:
1. Cells were maintained in T-150 flasks in selection media (DMEM supplemented with 10% fetal bovine serum and 200 μg/mL hygromycin B), under 5% CO2:95% air at 37° C. and were grown up to 90% confluency.
2. The medium was decanted and the cell monolayer was washed twice with phosphate-buffered saline (PBS) kept at 37° C. After the second wash, 6 mL of 0.02% EDTA in PBS was added and incubated for 4 minutes at 37° C. Following the incubation, cells were dispersed by gentle agitation.
3. Cells from 2 or 3 flasks were pooled and pelleted (100×g). The cellular pellet was resuspended in […] of SPF-PCB+ and pelleted again by centrifugation. This washing was done twice.
SPF-PCB was made up and stored at 4° C. On the day of use, SPF-PCB was supplemented with 1 mg/mL of D-glucose and 1 mM CaCl2 and then split into two fractions. To one fraction, bovine serum albumin (BSA; fraction V, ICN) was added at 5 mg/mL (SPF-PCB+). This buffer was used for washing, loading and maintaining the cells. The BSA-free fraction was used for diluting the cells in the cuvette for measurements of fluorescence.
5. Following the incubation period, the cells were pelleted by centrifugation. The resulting pellet was washed with SPF-PCB+. After this washing, cells were resuspended in SPF-PCB+ at a density of 1–2×10^6 cells/mL.
6. For recording fluorescent signals, 300 μL of cell suspension were diluted in 1.2 mL of SPF buffer containing 1 mM CaCl2 and 1 mg/mL of D-glucose. Measurements of fluorescence were performed at 37° C. with constant stirring using a spectrofluorimeter. […] To calibrate fluorescence signals, digitonin (5 mg/mL in ethanol) was added to obtain Fmax, and the apparent Fmin was determined by adding Tris-EGTA (2.5 M Tris-Base, 0.3 M EGTA).
7. To determine the potential calcilytic activity of test compounds, cells were incubated with test compound (or vehicle as a control) for 90 seconds before increasing the concentration of extracellular Ca^2+ from 1 to 2 mM. Calcilytic compounds were detected by their ability to block, in a concentration-dependent manner, increases in the concentration of intracellular Ca^2+ elicited by extracellular Ca^2+.

| SMILES | pIC50 |
| --- | --- |
| COc1ccc(CC(C)(C)NCC(O)COC(C)(C)C)cc1 (centres unmarked) [Compound 25, N-(2-Hydroxy-3-t-butoxypropyl)-1,1-dimethyl-2-(4-methoxyphenyl)ethylamine] | > 4.30 |
| CCCCC(CC)COCC(O)CNC(C)(C)Cc1ccc(OC)cc1 (centres unmarked) [Compound 28, N-[2-Hydroxy-3-(2-ethyl)hexanoxypropyl]-1,1-dimethyl-2-(4-methoxyphenyl)ethylamine] | > 6.00 |

Same assay, conditions: HEK 293 4.0–7 cells stably expressing the human calcium receptor; fluo-3; read-out: IC50 for blocking increases of intracellular Ca2+ elicited by extracellular Ca2+

| SMILES | pIC50 |
| --- | --- |
| COc1ccc(CC(C)(C)NCC(O)COc2cccc(OC(F)(F)F)c2)cc1 (centres unmarked) [Compound 154, N-[2-hydroxy-3-(3-trifluoromethoxyphenoxy)propyl]-1,1-dimethyl-2-(4-methoxyphenyl)ethylamine Hydrochloride] | > 6.00 |
| COc1ccc(CC(C)(C)NCC(O)COc2cc(OC)cc(OC)c2)cc1 (centres unmarked) [Compound 133, N-[2-hydroxy-3-(3,5-dimethoxyphenoxy)propyl]-1,1-dimethyl-2-(4-methoxyphenyl)ethylamine Hydrochloride] | > 6.00 |
| COc1ccc(CC(C)(C)NCC(O)COc2ccccc2C(C)(C)C)cc1 (centres unmarked) [Compound 48, N-[2-Hydroxy-3-(2-t-butylphenoxy)propyl]-1,1-dimethyl-2-(4-methoxyphenyl)ethylamine Hydrochloride] | > 5.00 |
| COc1ccc(CC(C)(C)NCC(O)COc2cc(Cl)cc(OC)c2)cc1 (centres unmarked) [Compound 157, N-[2-hydroxy-3-(3-chloro-5-methoxyphenoxy)propyl]-1,1-dimethyl-2-(4-methoxyphenyl)ethylamine Hydrochloride] | > 6.00 |
| COc1ccc(CC(C)(C)NCC(O)COc2cc(Cl)cc(Cl)c2)cc1 (centres unmarked) [Compound 137, N-[2-hydroxy-3-(3,5-dichlorophenoxy)propyl]-1,1-dimethyl-2-(4-methoxyphenyl)ethylamine Hydrochloride] | > 6.00 |
| COc1ccc(CC(C)(C)NCC(O)COc2ccccc2-c2ccccc2)cc1 (centres unmarked) [Compound 60, N-[2-hydroxy-3-(2-phenylphenoxy)propyl]-1,1-dimethyl-2-(4-methoxyphenyl)ethylamine] | < 4.30 |
| COc1ccc(CC(C)(C)NC[C@@H](O)COc2ccc3c(c2)[nH]c2ccccc23)cc1 [Compound 167] | > 6.00 |
| COc1ccc(CC(C)(C)NCC(O)COc2ccccc2[N+](=O)[O-])cc1 (centres unmarked) [Compound 159, N-[2-hydroxy-3-(2-nitrophenoxy)propyl]-1,1-dimethyl-2-(4-methoxyphenyl)ethylamine Hydrochloride] | > 6.00 |
| COc1ccc(CC(C)(C)NCC(O)COc2cccc(C(C)(C)C)c2)cc1 (centres unmarked) [Compound 50, N-[2-Hydroxy-3-(3-t-butylphenoxy)propyl]-1,1-dimethyl-2-(4-methoxyphenyl)ethylamine Hydrochloride] | > 6.00 |
| CCOc1ccc(CC(C)(C)NCC(O)COc2ccccc2)cc1 (centres unmarked) [Compound 102, N-(2-hydroxy-3-phenoxypropyl)-1,1-dimethyl-2-(4-ethoxyphenyl)ethylamine] | < 4.30 |
| CCC(C)(Cc1ccc(OC)cc1)NCC(O)COc1ccccc1 (centres unmarked) [Compound 113, N-(2-Hydroxy-3-phenoxypropyl)-1-ethyl-1-methyl-2-(4-methoxyphenyl)ethylamine Hydrochloride] | > 6.00 |
| CC(C)c1ccc(CC(C)(C)NCC(O)COc2ccccc2)cc1 (centres unmarked) [Compound 112, N-(2-Hydroxy-3-phenoxypropyl)-1,1-dimethyl-2-(4-isopropylphenyl)ethylamine Hydrochloride] | > 6.00 |
| COc1ccc(CC(C)(C)NCCCCOc2ccccc2)cc1 [Compound 36, N-(4-phenoxybutyl)-1,1-dimethyl-2-(4-methoxyphenyl)ethylamine] | < 4.30 |
| COc1ccc(CC(C)(C)NCC(O)COc2ccccc2)cc1F (centres unmarked) [Compound 128, N-(2-hydroxy-3-phenoxypropyl)-1,1-dimethyl-2-(3-fluoro-4-methoxyphenyl) ethylamine] | > 5.00 |
| CCC(CC)(Cc1ccc(OC)cc1)NCC(O)COc1ccccc1 (centres unmarked) [Compound 114, N-(2-Hydroxy-3-phenoxypropyl)-1,1-diethyl-2-(4-methoxyphenyl)ethylamine Hydrochloride] | > 5.00 |
| COc1cccc(CC(C)(C)NCC(O)COc2ccccc2)c1 (centres unmarked) [Compound 99, N-(2-Hydroxy-3-phenoxypropyl)-1,1-dimethyl-2-(3-methoxyphenyl)ethylamine Hydrochloride] | < 4.30 |
| COc1ccc(CC(C)(C)NCC(C)(O)COc2ccccc2)cc1 (centres unmarked) [Compound 101, N-(2-Hydroxy-2-methyl-3-phenoxypropyl)-1,1-dimethyl-2-(4-methoxyphenyl)ethylamine Hydrochloride] | > 4.30 |
| COc1ccc(CC(C)(C)NCC(COc2ccccc2)OC)cc1 (centres unmarked) [Compound 59, N-(2-Methoxy-3-phenoxypropyl)-1,1-dimethyl-2-(4-methoxyphenyl)ethylamine Hydrochloride] | > 5.00 |
| Cc1ccc(CC(C)(C)NCC(O)COc2ccccc2)cc1 (centres unmarked) [Compound 98, N-(2-Hydroxy-3-phenoxypropyl)-1,1-dimethyl-2-(4-methylphenyl)ethylamine Hydrochloride] | > 5.00 |
| COc1ccc(CC(C)(C)NCC(O)COC23CC4CC(CC(C4)C2)C3)cc1 (centres unmarked) [Compound 96, N-[2-Hydroxy-3-(1-adamantanoxy)propyl]-1-1,1-dimethyl-2-(4-methoxyphenyl)ethyl amine] | > 6.00 |
| CC(C)(Cc1cccc2ccccc12)NCC(O)COc1ccccc1 (centres unmarked) [Compound 92, N-(2-hydroxy-3-phenoxypropyl)-1,1-dimethyl-2-(1-naphthyl)ethylamine] | < 4.30 |
| COc1ccc(CC(C)(C)NCC(O)COc2ccc(Cl)cc2)cc1 (centres unmarked) [Compound 5, N-[2-Hydroxy-3-(4-chlorophenoxy)propyl]-1,1-dimethyl-2-(4-methoxyphenylethylamine Hydrochloride] | > 6.00 |
| COc1ccc(CC(C)(C)NC[C@H](O)COc2cccc3ccccc23)cc1 (single isomer, unassigned) [Compound 106, Hydrochloride] | > 6.00 |
| Cc1ccc(CC(C)(C)NCC(O)COc2ccccc2)cc1C (centres unmarked) [Compound 121, N-(2-Hydroxy-3-phenoxy)propyl)-1,1-dimethyl-2-(3,4-dimethylphenyl)ethylamine Hydrochloride] | > 6.00 |
| CCc1ccc(OCC(O)CNC(C)(C)Cc2ccc(OC)cc2)cc1 (centres unmarked) [Compound 141, N-[2-hydroxy-3-(4-ethylphenoxy)propyl]-1,1-dimethyl-2-(4-methoxyphenyl)ethylamine Hydrochloride] | > 6.00 |
| COc1ccc(CC(C)(C)NCC(O)COc2cccc(F)c2)cc1 (centres unmarked) [Compound 39, N-[2-Hydroxy-3-(3-fluorophenoxy)propyl]-1,1-dimethyl-2-(4-methoxyphenyl)ethylamine Hydrochloride] | > 5.00 |
| COc1ccc(CC(C)(C)NCC(O)COc2cccc(C)c2)cc1 (centres unmarked) [Compound 45, N-[2-Hydroxy-3-(3-methylphenoxy)propyl]-1,1-dimethyl-2-(4-methoxyphenyl)ethylamine Hydrochloride] | > 5.00 |

Reference: patent publication US7202261B2, “Calcilytic compounds” (NPS Pharmaceuticals, Inc., priority 1996, dated 2007)
